A short description of data set [1]: In vivo minimum lethal dose causing lethality to >/=66% of the mice tested i.v. Format: ADME, organism-based. The conditions noted are these: mouse, iv.
The test system of data set [2] is Pseudomonas aeruginosa. The experiment in a line: In vitro minimum concentration of the efflux pump inhibitor required to reduce (potentiate) the MIC of fuoroquinolone levofloxacin 8-fold (LVFX). Format: functional.
Data set [3] has as its system Pseudomonas aeruginosa. As to the kind of experiment: In vitro minimum concentration of the efflux pump inhibitor required to inhibit the growth of PAM 1723 a strain of Pseudomonas aeruginosa. The format is functional.
Data set [4] in a line: In vivo minimum lethal dose causing lethality to >/=66% of the mice tested i.p. The format is ADME, organism-based. The conditions noted are these: mouse, ip.
The nature of data set [5]: In vivo toxicity in mice i.v. The format is organism-based. The following applies: mouse, iv.
Data set [6] in a line: Clearance measured in rat. Format: ADME, organism-based. The following applies: in vivo, read-out: CLfree (converted).

Converted amounts (≈) assume the structure as drawn. Where a SMILES comes first, the peptide text is derived from it. The star is where a group is joined. βNA = c1ccc2cc(N*)ccc2c1 Where only a bound is given, the exact number is not on record here.

As a reminder, the MIC is the least concentration at which growth counts as inhibited. A high value points to weaker potency. One may read the LD50 as the dose at which mortality reaches 50%. Read a low LD50 as greater toxicity.

Consider `NCCO[C@H]1CN[C@H](C(=O)N[C@H](CCc2ccccc2)C(=O)Nc2cnc3ccccc3c2)C1`, for which, in data set [1], the MLD turned out to be 70 mg/kg. The MPC with Pseudomonas aeruginosa [2] was determined as 10 µg/mL. In addition, in the data set on Pseudomonas aeruginosa [3], the MIC was above 512 µg/mL.

Consider `CC(C)(C)c1ccc2ncc(NC(=O)[C@H]3C[C@H](CN)CN3)cc2c1`, for which, in data set [1], the MLD was above 150 mg/kg. Also, the MPC with Pseudomonas aeruginosa [2] is 5 µg/mL. In the data set with Pseudomonas aeruginosa [3], this compound had an MIC of 128 µg/mL (≈ 392 µM).

Turning to `CC(C)C[C@@H](NC(=O)[C@H](N)CCCN)C(=O)Nc1cnc2ccccc2c1`, the results for the MLD in data set [1] and in data set [4] were 50 mg/kg and 300 mg/kg, respectively. Further, the MPC in the data set with Pseudomonas aeruginosa [2] amounted to 20 µg/mL.

`C[C@H]1COc2c(N3CCN(C)CC3)c(F)cc3c(=O)c(C(=O)O)cn1c23.C[C@H]1COc2c(N3CCN(C)CC3)c(F)cc3c(=O)c(C(=O)O)cn1c23.O` [LEVOFLOXACIN]: the LD50 in data set [5] was above 100 mg/kg. Besides, the MLD in data set [1] was above 100 mg/kg.

In turn, `NCCC[C@@H](N)C(=O)N[C@H](CCc1ccccc1)C(=O)Nc1cnc2ccccc2c1` returned an LD50 in data set [5] below 25 mg/kg. Moreover, the MLD is below 25 mg/kg in data set [1] and 200 mg/kg in data set [4]. In data set [6], the clearance was 28.3 mL/min/kg. Moreover, the MPC in the data set with Pseudomonas aeruginosa [2] stood at 10 µg/mL. Moreover, the MIC in the data set with Pseudomonas aeruginosa [3] is above 512 µg/mL.

For the compound `N=C(N)NCCC[C@H](NC(=O)[C@@H](N)Cc1ccccc1)C(=O)Nc1ccc2ccccc2c1` [PABETAN] (H-Phe-Arg-βNA), in data set [5], the LD50 is below 25 mg/kg. For the same compound, in data set [1], the MLD was below 25 mg/kg. Also, the MPC with Pseudomonas aeruginosa [2] was 10 µg/mL. This compound also gave an MIC in the data set on Pseudomonas aeruginosa [3] above 512 µg/mL.

Consider `CN(C(=O)[C@@H](N)Cc1ccccc1)[C@@H](CCCN)C(=O)Nc1ccc2ccccc2c1`, for which the MLD in data set [1] is below 25 mg/kg. Further, the MPC with Pseudomonas aeruginosa [2] turned out to be 5 µg/mL. Also, in the data set on Pseudomonas aeruginosa [3], it took 256 µg/mL (≈ 612 µM) to inhibit growth (MIC).

`CN(C(=O)[C@@H](N)CCc1ccccc1)[C@@H](CCCN)CSc1nc2ccccc2s1` came in with an MLD in data set [1] of 25 mg/kg. Also, in the data set with Pseudomonas aeruginosa [2], the MPC is 5 µg/mL. In the data set on Pseudomonas aeruginosa [3], this compound displayed an MIC of 128 µg/mL (≈ 289 µM).

In data set [1], `C[C@H](N)C(=O)N[C@H](CCc1ccccc1)C(=O)Nc1cnc2ccccc2c1` showed an MLD of 125 mg/kg. Besides, the MPC with Pseudomonas aeruginosa [2] is above 40 µg/mL.

On to `CC(C)(C)c1ccc2ncc(NC(=O)CNC(=O)[C@H](N)CCCN)cc2c1`, for which, in data set [1], the MLD was determined as 35 mg/kg. In addition, the MPC in the data set on Pseudomonas aeruginosa [2] was 5 µg/mL. In the data set with Pseudomonas aeruginosa [3], this compound displayed an MIC of 64 µg/mL (≈ 172 µM).

`NC[C@@H]1CN[C@@H](C(=O)N[C@H](CCc2ccccc2)C(=O)Nc2cnc3ccccc3c2)C1` had an MLD in data set [1] of 50 mg/kg. Moreover, in the data set on Pseudomonas aeruginosa [2], the MPC came to 5 µg/mL. The MIC with Pseudomonas aeruginosa [3] was above 512 µg/mL.

In the case of `NC[C@@H]1CN[C@@H](C(=O)N[C@H](CCc2ccccc2)C(=O)Nc2ccc3ncccc3c2)C1`, the MLD in data set [1] is above 100 mg/kg. The clearance in data set [6] was 48.3 mL/min/kg. Moreover, in the data set with Pseudomonas aeruginosa [2], the MPC worked out at 10 µg/mL. The compound also registered an MIC in the data set on Pseudomonas aeruginosa [3] above 512 µg/mL.
